Test systems include DLD-1 colon; HCC-2998 colon; LXFL 529 NSCLC; M19-MEL melanoma; OVCAR-4 ovarian; OVCAR-8 ovarian; SK-MEL-2 melanoma; SNB-75 CNS; SNB-78 CNS; HS 578T breast; MDA-MB-435; T-47D breast.
What all share (test): NCI anticancer screen, dose series, 48 h

“And” between values parts separate entries of the source, which are not always exact repeats. Identical values can stand only once.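 Results reflect a 48-hour exposure of cells in 96-well plates to compound at five concentrations. GI50 marks 50% less growth. TGI: concentration producing complete growth inhibition.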 Where a SMILES comes first, the peptide text is derived from it. [ ]: non-standard residue; d: D form. The star is where a group is joined. ξ: configuration not given here. X3 = COc1ccc(C(N*)c2ccc(OC)cc2)cc1; NMeF = CN[C@@H](Cc1ccccc1)C(=O)O; NMeD = CN[C@@H](CC(=O)O)C(=O)O; NMeV = CN[C@H](C(=O)O)C(C)C; ξNMeV = CNC(C(=O)O)C(C)C; Boc = CC(C)(C)OC(=O)*; ξNMeA = CNC(C)C(=O)O; ξV = CC(C)C(N)C(=O)O

Take `O=C(Nc1ccccc1-c1nn(C(=S)Nc2ccccc2)c(=S)n(C(=S)Nc2ccccc2)c1=O)C(F)(F)F`: the TGI with DLD-1 colon is more than 100 µM; with HCC-2998 colon, more than 72.5 µM; in the assay with LXFL 529 NSCLC, 54 µM; in the assay on M19-MEL melanoma, more than 94.9 µM; in the assay with OVCAR-4 ovarian it was more than 31.6 µM; in the assay on OVCAR-8 ovarian it was more than 90.3 µM. Moreover, the TGI in the assay with SK-MEL-2 melanoma is more than 66.7 µM; with SNB-75 CNS it was more than 88.1 µM; in the assay on SNB-78 CNS, more than 100 µM.

In the case of `O=S(=O)(N/N=C/c1cccc(/C=N/NS(=O)(=O)c2ccccc2)c1)c1ccccc1`, the TGI with DLD-1 colon, in the assay with HCC-2998 colon, in the assay with LXFL 529 NSCLC, in the assay on M19-MEL melanoma, in the assay on OVCAR-4 ovarian and in the assay on OVCAR-8 ovarian was more than 100 µM in each case. In addition, the TGI in the assay with SK-MEL-2 melanoma, in the assay with SNB-75 CNS and in the assay on SNB-78 CNS was more than 100 µM each time.

For `Cc1ccc(Oc2ccc(C)cc2N)cc1`, the TGI in the assay on DLD-1 colon, with HCC-2998 colon, with LXFL 529 NSCLC, with M19-MEL melanoma, in the assay on OVCAR-4 ovarian and in the assay with OVCAR-8 ovarian was more than 100 µM throughout. Further, the TGI is more than 100 µM in the assay on SK-MEL-2 melanoma, 73.3 µM in the assay on SNB-75 CNS and more than 100 µM with SNB-78 CNS.

As for `Cc1cc2c(C)[nH]nc2c(C(=O)O)c1C`, the TGI with DLD-1 colon, in the assay on HCC-2998 colon, with LXFL 529 NSCLC, in the assay with M19-MEL melanoma, in the assay on OVCAR-4 ovarian and with OVCAR-8 ovarian was more than 100 µM in each case. Also, the TGI with SK-MEL-2 melanoma, with SNB-75 CNS and in the assay on SNB-78 CNS was more than 100 µM in each case.

Take `CN(C)CC1CC/C(=C\c2ccc(O)cc2)C1=O` (stereo unspecified): the TGI with DLD-1 colon is 6.27 µM; in the assay on HCC-2998 colon it was 25.5 µM; in the assay with HS 578T breast it was 40.9 µM; in the assay on LXFL 529 NSCLC, 3.45 µM; with M19-MEL melanoma, 7.55 µM; with MDA-MB-435, 10.8 µM. Further, the TGI came to 18.5 µM in the assay on OVCAR-4 ovarian; 14.6 µM with OVCAR-8 ovarian; 21.1 µM in the assay with SK-MEL-2 melanoma; 25.8 µM with SNB-75 CNS; 17.9 µM in the assay on SNB-78 CNS; 5.34 µM in the assay on T-47D breast.

As to `COC(=O)C(CCCN1C(=O)c2ccccc2C1=O)C(=O)OC`, the TGI with DLD-1 colon, in the assay on HCC-2998 colon, in the assay on LXFL 529 NSCLC, in the assay on M19-MEL melanoma, in the assay with OVCAR-4 ovarian and in the assay with OVCAR-8 ovarian was more than 100 µM each time. The TGI in the assay on SK-MEL-2 melanoma, in the assay on SNB-75 CNS and in the assay with SNB-78 CNS was more than 100 µM each time.

Turning to `S=c1sc2c(n1-c1ccccc1)NC=NC2S` (stereo unspecified), the TGI with DLD-1 colon, in the assay with HCC-2998 colon, with LXFL 529 NSCLC, in the assay on M19-MEL melanoma, in the assay with OVCAR-4 ovarian and with OVCAR-8 ovarian was more than 100 µM in each case. For the same compound, the TGI in the assay on SK-MEL-2 melanoma, in the assay with SNB-75 CNS and with SNB-78 CNS was more than 100 µM throughout.

Consider `COc1ccc(C(NC(=O)C[C@@H](C(=O)N(C)C(C)C(=O)O)N(C)C(=O)[C@@H]2CCCN2C(=O)[C@H](C(C)C)N(C)C(=O)C(C(C)C)N(C)C(=O)[C@H](Cc2ccccc2)N(C)C(=O)C(NC(=O)OC(C)(C)C)C(C)C)c2ccc(OC)cc2)cc1` (stereo partly specified) (Boc-[ξV][NMeF][ξNMeV][NMeV]P[NMeD](X3)[ξNMeA]-OH), for which the TGI in the assay on DLD-1 colon was 32.1 µM; in the assay with HCC-2998 colon, 14.8 µM and 36 µM; with HS 578T breast it was 7.32 µM; in the assay with LXFL 529 NSCLC, 27.9 µM; in the assay on M19-MEL melanoma, 34.4 µM; in the assay on MDA-MB-435, 20 µM. Also, the TGI in the assay on OVCAR-4 ovarian is 37.5 µM and 64.5 µM; in the assay on OVCAR-8 ovarian, 37.5 µM and 33.7 µM; with SK-MEL-2 melanoma, 16.8 µM and 28.9 µM; in the assay on SNB-75 CNS, 17.6 µM and 30.7 µM; in the assay with SNB-78 CNS, 36.5 µM; with T-47D breast, 36.7 µM. Further, the GI50 with HCC-2998 colon was 19.3 µM; in the assay on OVCAR-4 ovarian, 24.8 µM; in the assay with OVCAR-8 ovarian, 19.1 µM; with SK-MEL-2 melanoma, 14.5 µM; in the assay with SNB-75 CNS, 15.8 µM.

On to `CC(=O)OCCOCNC(=S)N/N=C(\C)c1cnccn1`, for which the TGI was more than 100 µM with DLD-1 colon; more than 100 µM in the assay on HCC-2998 colon; more than 100 µM in the assay with LXFL 529 NSCLC; 46.3 µM with M19-MEL melanoma; more than 100 µM with OVCAR-4 ovarian; more than 100 µM in the assay on OVCAR-8 ovarian. The TGI with SK-MEL-2 melanoma, in the assay on SNB-75 CNS and with SNB-78 CNS was more than 100 µM throughout.

As to `CCCCCC[C@@H]1CCC2C(CO)[C@@H](O)CC[C@@H]2C1` (stereo partly specified), the TGI in the assay with DLD-1 colon worked out at 34.6 µM; in the assay on HCC-2998 colon, 37 µM; in the assay with LXFL 529 NSCLC it was 32.6 µM; in the assay with M19-MEL melanoma, 35.3 µM; in the assay on OVCAR-4 ovarian, 30.6 µM; in the assay with OVCAR-8 ovarian it was 33.4 µM. In addition, the TGI in the assay with SK-MEL-2 melanoma worked out at 43.3 µM; in the assay with SNB-75 CNS it was 37.6 µM; in the assay with SNB-78 CNS it was 41.3 µM.

The values above are taken from PubChem BioAssay (NCI).
